Measured values taken from EP0533056A2, “Substituted aminopropanes, process for their preparation and their use as antimycotic agents” (HOECHST AKTIENGESELLSCHAFT, priority 1991, dated 1993).

Columns and labels:
[1] = system: Phospholipase von Candida albicans; test: Inhibition of released exoenzymes (phospholipase) of Candida albicans blastoconidia, egg-yolk agar plate, turbidity halo; type: cell-based; settings: Candida albicans Stamm 200/175, in vitro
Method: Zur Feststellung der Enzymhemmung wurde eine Suspension von Candida albicans Blastokonidien (Stamm 200/175), wobei die Keimdichte photometrisch auf eine Extinktion von 0,5 (500 nm) eingestellt war, mit Präparatelösung bzw. zur Kontrolle mit Lösungsmittellösung vermischt und zwar • a) 100 µl Präparatelösung (Suspension) • + 900 µl Keimsuspension • b) 100 µl Lösungsmittel • + 900 µl Keimsuspension Jeweils 5 µl der 30 min bei 21 ° C inkubierten Blastokonidiensuspension wurden auf eine Agarplatte (Sabourand Agar mit Zusatz von 8 % Eigelb, 1 m NaCI, 5 mM CaC12) aufgetropft.
Die so beimpfte Platte wurde 3 Tage bei 37 ° C bebrütet.
Die Auswertung erfolgte derart, daß • 1. der Durchmesser (mm) der Candida albicans-Kolonie (behandelt und unbehandelt) sowie • 2. der Gasamtdurchmesser von Kolonie und Trübungshof, welcher durch Exoenzyme verursacht wurde (behandelt und unbehandelt), bestimmt wurde.
Aus der Bestimmung des Quotienten von Präparate- und Kontrollgruppe ergab sich ein Wert, der als Maß für die Enzymaktivität anzusehen war.

[2] = system: Trichophyton mentagrophytes; test: Percent killing of Trichophyton mentagrophytes in vitro; type: cell-based; settings: nach 14 h in aqua dest., read-out: %-Abtötung von Trichophyton mentagrophytes
Text: Die pilzabtötende, antimykotische Wirksamkeit der Verbindungen wurde an einigen Beispielen (s. Tabelle 3) anhand der prozentualen Abtötung von Trichophyton mentagrophytes in vitro verifiziert (Standardpräparat Rilopirox als Vergleichssubstanz).

[3] = system: Phospholipase aus Leberzellen; settings: in-vitro-Test, literature (Pappu A.S. et al., Biochem. Pharmacol. 34, 521-24, 1985); cited from earlier work

Row | SMILES | % Hemmung der Phospholipase ([1]; Konzentration 50 μm/ml) [%] | % Hemmung der Phospholipase ([1]; Konzentration 100 μm/ml) [%] | % Hemmung der Phospholipase ([1]; Konzentration 10 μm/ml) [%] | % Hemmung der Phospholipase ([1]; Konzentration 5 μm/ml) [%] | killing at 40 µg/mL [2] [%] | killing at 80 µg/mL [2] [%] | % Hemmung der Phospholipase ([1]; Konzentration 1 μm/ml) [%] | Hemmwirkung gegenüber Phospholipase aus Leberzellen [3]
1 | CC(C)(C)NCC(O)(COc1ccc(OCc2ccccc2)cc1)C(C)(C)C (centres unmarked) [1.5] | 100 | 100 |  |  |  |  |  | 
2 | CC(C)NCC(O)(COc1ccc(Cl)cc1Cl)C(C)(C)C (centres unmarked) [1.7, 2-t-Butyl-1-(2,4-dichlorphenoxy)-3-isopropyl-amino-2-propanol] |  | 100 | 20 |  |  |  |  | 
3 | CCCCNCC(O)(COc1ccc(C(C)(C)C)cc1)C(C)(C)C (centres unmarked) [1.11] |  | 100 |  |  |  |  |  | 
4 | CCCCNCC(O)(COc1ccc(C(C)(C)C)cc1)c1ccc(-c2ccccc2)cc1 (centres unmarked) [1.15] | 100 | 100 | 100 | 100 |  |  |  | 
5 | CCCCCCCCCCCCNCC(O)(COc1ccc(C(C)(C)C)cc1)c1ccc(-c2ccccc2)cc1 (centres unmarked) [1.17] | 100 | 100 | 100 | 100 | 97.8 | 100 |  | 
6 | CCCCCCCOc1ccc(OCC(O)(CNCCCC)C(C)(C)C)cc1 (centres unmarked) [1.18] | 100 | 100 | 100 | 100 |  |  |  | 
7 | CCCCCCCOc1ccc(OCC(O)(CNCc2ccccc2)C(C)(C)C)cc1 (centres unmarked) [1.19, 3-N-Benzylamino-2-t-butyl-1-(4-heptyloxy-phenyl-oxy)-2-propanol] | 100 | 100 | 100 | 100 |  |  |  | 
8 | CCCCCCCOc1ccc(OCC(O)(CNCc2ccc(OC)c(OC)c2)C(C)(C)C)cc1 (centres unmarked) [1.21] | 100 | 100 | 100 |  |  |  |  | 
9 | CCCCCCCOc1ccc(OCC(O)(CNCCC(c2ccccc2)c2ccccc2)C(C)(C)C)cc1 (centres unmarked) [1.22] | 100 | 100 | 10 |  |  |  |  | 
10 | CCCCCCCCCCCCNCC(O)(COc1ccc(OCCCCCCC)cc1)C(C)(C)C (centres unmarked) [1.23] | 100 | 100 | 100 | 100 |  |  |  | 
11 | CCCCCCCOc1ccc(OCC(O)(CNC(C)C)C(C)(C)C)cc1 (centres unmarked) [1.24] | 100 | 100 | 100 | 100 |  |  |  | 
12 | CC1(C)CC(NCC(O)(COc2ccc(Oc3ccccc3)cc2)C(C)(C)C)CC(C)(C)N1 (centres unmarked) [1.31] | 100 | 100 | 100 | 7.7 |  |  |  | 
13 | CCCCCCCCCCCCNCC(O)(COc1ccc(Oc2ccccc2)cc1)C(C)(C)C (centres unmarked) [1.34] | 100 | 100 | 100 | 33.3 |  |  | 6.3 | 
14 | CC(C)(C)CC(C)(C)c1ccc(OCC(O)(CNCc2ccc(Cl)cc2Cl)C(C)(C)C)cc1 (centres unmarked) [1.48] | 100 | 100 | 100 | 100 |  |  | 14.3 | 
15 | CCCCCCCCCCCCNCC(O)(COc1ccc(OCCCCCCC)cc1)c1ccccc1 (centres unmarked) [1.53] | 100 | 100 | 100 | 100 |  |  |  | 
16 | CC(C)NCC(O)COc1cccc2ccccc12 (centres unmarked) [Propranolol, reference compound] |  | 30 |  |  |  |  |  | wirksamste Substanz
17 | Cc1cc(COc2ccc(Oc3ccc(Cl)cc3)cc2)n(O)c(=O)c1 [Rilopirox, reference compound] |  |  |  |  | 100 | 100 |  | 
